Test results published in patent publication US9114149B2, “[CU(thp)4]n[X]-n compounds for the treatment of a broad range of human solid tumors, including refractory tumors” (Universita Degli Studi Di Padova, priority 2011, dated 2015).
Marks after values point to notes of the source that are not given here.

Columns and labels:
BALB/c mice = assay: Acute toxicity tests in healthy BALB/c mice; type: in vivo; details: for LD50: BALB/c mice, observed 24 hrs
Procedure: The acute toxicity was assessed by treating BALB/c or C57BL mice with a single intraperitoneal (i.p.) or endovenous (e.v.) administration of different amounts, i.e. 3.125, 6.25, 12.5, 25, 50, 100 and 200 mg/kg of tested compounds.
To preliminarily establish the toxicity profile of CP, acute and repeat-dose toxicity studies were performed in BALB/c mice and in C57BL mice.

Solubility in water = type: physicochemical
[1] = system: human colon adenocarcinoma cells resistant (HCT-116 OXP) to OXP
[2] = system: human cancer versus human normal cells
[3] = human non-tumor versus malignant cells

F[P-](F)(F)(F)(F)F.OC[P+](CO)(CO)[Cu-3]([P+](CO)(CO)CO)([P+](CO)(CO)CO)[P+](CO)(CO)CO [CP, [Cu(thp)4][PF6]]
LD50 relative to that recorded with CDDP (BALB/c mice; BALB/c and C57BL mice (Table 5)): about one order of magnitude higher
LD50 (BALB/c mice; single e.v. administration): 135^b mg/kg
LD50 (BALB/c mice; single i.p. administration): 150^a mg/kg
solubility in water (Solubility in water): excellent solubility in water
IC50 ([1]; HCT-116 OXP (OXP resistant), MTT test, 72 h, probit analysis): 1900 ± 700 nM
R.F. (Resistant factor) ([1]; IC50 resistant/parent line: HCT-116 OXP / HCT-116): 1.4
Selectivity index (SI) ([2]; average IC50 towards normal cells divided by average IC50 for the malignant cells): 32.4
SI fold higher than CDDP [2, 3]: about 2 fold
SI fold higher than OXP [2, 3]: ~3 fold
